This note sets out measurements from patent US20220340598A1, “PYRAZOLOPYRIDINONE COMPOUNDS” (Janssen Pharmaceutica NV, priority 2017, published 2022).

Structures can show the parent of a compound that is named as a salt.

The target in assay [1] is T1, NIH/3T3 cells overexpressing FGFR3 WT-TACC3 fusion protein (Homo sapiens, UniProt P22607).
T1 construct: fused on or other part: Q9Y6A5 (Transforming acidic coiled-coil-containing protein 3)
As to the kind of experiment: NIH/3T3 FGFR3 WT-TACC3 cell proliferation assay. As to conditions: 72-hr incubation, CellTiter Glo; read-out: NIH/3T3 FGFR3 WT-TACC3 CTG (IC50). The class given is cell-based. The protocol: NIH/3T3 FGFR3 WT-TACC3 Cell Proliferation Assay
(§1) In day 1, 90 μL of cell suspension (NIH/3T3 cells overexpressing FGFR3 WT-TACC3 fusion protein) (total 30,000 cells per well in growth medium (DMEM containing 1% Glutamax, 10% FBS and 1% Pen/Strep)) was seeded in a 96-well plate and then incubated overnight at 37° C. and 5% CO2. In day 2, 10 μL of growth medium containing 10-fold stock solution of testing compound was added into cell cultures (9 dose points with 4× serial dilution, starting with 10 μM, 0.1% DMSO final). After 72-hr incubation at 37° C. and 5% CO2, in day 5 a volume of 50 μL CellTiter Glo (CTG) reagent was added into cell-containing 96-well plate and the plate was incubated at room temperature for 10 minutes before RLUs (relative light unit) were measured on a microplate reader with luminescence detection module. The RLU value was normalized to survival % and concentration-response curve was plotted using Prism to calculate IC50 (M), pIC50 (−log IC50) and HillSlope value.
(In general: ATP-based viability assays read luminescence as a measure of living cells.)

For assay [2], the target named is T2, NIH/3T3 cells overexpressing FGFR3 V555M-TACC3 fusion protein (Homo sapiens, UniProt P22607, V555M, cells depend on it).
T2 construct: fused on or other part: Q9Y6A5 (Transforming acidic coiled-coil-containing protein 3)
T2 sequence (P22607 whole entry V555M, the tested form may be a part): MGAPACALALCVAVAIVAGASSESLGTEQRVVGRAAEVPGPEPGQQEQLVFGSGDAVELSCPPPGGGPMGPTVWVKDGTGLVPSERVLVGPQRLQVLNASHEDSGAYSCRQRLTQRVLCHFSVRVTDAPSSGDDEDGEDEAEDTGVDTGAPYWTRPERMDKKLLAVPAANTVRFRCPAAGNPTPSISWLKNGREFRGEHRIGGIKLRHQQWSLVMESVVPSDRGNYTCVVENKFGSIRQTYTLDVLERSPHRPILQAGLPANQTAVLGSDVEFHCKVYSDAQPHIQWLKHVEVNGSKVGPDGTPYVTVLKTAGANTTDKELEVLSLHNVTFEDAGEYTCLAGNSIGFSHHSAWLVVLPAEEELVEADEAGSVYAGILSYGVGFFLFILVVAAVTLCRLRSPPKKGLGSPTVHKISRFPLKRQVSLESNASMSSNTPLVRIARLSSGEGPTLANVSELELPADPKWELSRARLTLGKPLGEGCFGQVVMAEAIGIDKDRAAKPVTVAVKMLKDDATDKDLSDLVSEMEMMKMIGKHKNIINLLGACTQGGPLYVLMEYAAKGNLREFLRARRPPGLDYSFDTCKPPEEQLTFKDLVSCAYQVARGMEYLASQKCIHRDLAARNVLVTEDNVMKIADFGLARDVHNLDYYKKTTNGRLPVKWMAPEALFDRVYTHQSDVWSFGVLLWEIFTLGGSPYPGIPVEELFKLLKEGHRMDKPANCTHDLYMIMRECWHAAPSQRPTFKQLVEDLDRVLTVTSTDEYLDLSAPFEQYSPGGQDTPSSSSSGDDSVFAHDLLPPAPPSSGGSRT
As to the kind of experiment: NIH/3T3 FGFR3 V555M-TACC3 cell proliferation assay. The format is cell-based. The conditions noted are these: 72-hr incubation, CellTiter Glo; read-out: NIH/3T3 FGFR3 V555M-TACC3 CTG (IC50). The protocol:
NIH/3T3 FGFR3 V555M-TACC3 Cell Proliferation Assay
as §1, with “V555M-TACC3” for “WT-TACC3”

T1 sequence (P22607 whole entry, change not shown, the tested form may be a part): as the sequence (P22607 whole entry V555M, the tested form may be a part) above, with M555V counted along it

With `COCC(Nc1c(-c2nc3ccc(OC)cc3[nH]2)c(=O)[nH]c2cn(C)nc12)c1ncccn1` (single isomer, unassigned) [Compound 12, (S*)-7-((2-methoxy-1-(pyrimidin-2-yl)ethyl)amino)-6-(6-methoxy-1H-benzo[d]imidazol-2-yl)-2-methyl-2H-pyrazolo[4,3-b]pyridin-5(4H)-one], the GI50 stood at 106 nM in assay [1] and 109 nM in assay [2].

As for `CCC(Nc1c(-c2nc3ccc(OC)cc3[nH]2)c(=O)[nH]c2cn(C)nc12)c1ncccn1` (single isomer, unassigned) [Compound 17, (R*)-6(6-Methoxy-1H-benzo[d]imidazol-2-yl)-2-methyl-7-((1-(pyrimidin-2-yl)propyl)amino)-2H-pyrazolo[4,3-b]pyridin-5(4H)-one], the GI50 in assay [1] stood at 27.6 nM; in assay [2] it was 23.9 nM.

On to `COc1cc2[nH]c(-c3c(NC(c4ncccn4)C(C)C)c4nn(C)cc4[nH]c3=O)nc2cn1` (single isomer, unassigned) [Compound 18, (S*)-6-(6-methoxy-1H-imidazo[4,5-c]pyridin-2-yl)-2-methyl-7-((2-methyl-1-(pyrimidin-2-yl)propyl)amino)-2H-pyrazolo[4,3-b]pyridin-5(4H)-one], for which the GI50 in assay [1] is 71.9 nM; in assay [2], 51.5 nM.

On to `COc1cnc2nc(-c3c(NC(c4ncccn4)C(C)C)c4nn(C)cc4[nH]c3=O)[nH]c2c1` (single isomer, unassigned) [Compound 40, (S*)-6-(6-methoxy-1H-imidazo[4,5-b]pyridin-2-yl)-2-methyl-7-((2-methyl-1-(pyrimidin-2-yl)propyl)amino)-2,4-dihydro-5H-pyrazolo[4,3-b]pyridin-5-one], for which the GI50 in assay [1] was found to be 81 nM; in assay [2], 78.5 nM.

For the compound `CCC(Nc1c(-c2nc3cc(OC)c(OC)cc3[nH]2)c(=O)[nH]c2cn(C)nc12)c1ncccn1` (single isomer, unassigned) [Compound 42, (S*)-6-(5,6-dimethoxy-1H-benzo[d]imidazol-2-yl)-2-methyl-7-((1-(pyrimidin-2-yl)propyl)amino)-2H-pyrazolo[4,3-b]pyridin-5(4H)-one], the GI50 in assay [2] turned out to be 18.2 nM.

`CCC(Nc1c(-c2nc3cc(OC)c(OC)cc3[nH]2)c(=O)[nH]c2cn(CC)nc12)c1ncccn1` (single isomer, unassigned) [Compound 44, (S*)-6-(5,6-dimethoxy-1H-benzo[d]imidazol-2-yl)-2-ethyl-7-((1-(pyrimidin-2-yl)propyl)amino)-2H-pyrazolo[4,3-b]pyridin-5(4H)-one]: the GI50 in assay [1] worked out at 31.7 nM; in assay [2] it was 51.6 nM.

In the case of `COc1cc2nc(-c3c(NC(c4ncccn4)C4CC4)c4nn(C)cc4[nH]c3=O)[nH]c2cc1OC` (single isomer, unassigned) [Compound 46, (S*)-7-((cyclopropyl(pyrimidin-2-yl)methyl)amino)-6-(5,6-dimethoxy-1H-benzo[d]imidazol-2-yl)-2-methyl-2H-pyrazolo[4,3-b]pyridin-5(4H)-one], the GI50 came to 22.7 nM in assay [1] and 27.6 nM in assay [2].

In the case of `CC(C)[C@H](Nc1c(-c2nc3ncc(N(C)C)cc3[nH]2)c(=O)[nH]c2cn(C)nc12)c1ncccn1` (stereo in doubt) [Compound 23, (S*)-6-(6-(dimethylamino)-1H-imidazo[4,5-b]pyridin-2-yl)-2-methyl-7-((2-methyl-1-(pyrimidin-2-yl)propyl)amino)-2H-pyrazolo[4,3-b]pyridin-5(4H)-one 0.14 formate], the GI50 in assay [1] came out at 58 nM; in assay [2], 37.3 nM.

Consider `COc1cc(F)c2nc(-c3c(N[C@@H](C)c4ncccn4)c4nn(C)cc4[nH]c3=O)[nH]c2c1` [Compound 2, (S)-6-(4-fluoro-6-methoxy-1H-benzo[d]imidazol-2-yl)-2-methyl-7-((1-(pyrimidin-2-yl)-ethyl)amino)-2H-pyrazolo[4,3-b]pyridin-5(4H)-one], for which the GI50 in assay [1] was found to be 18 nM; in assay [2], 16.1 nM.

On to `COc1cnc2nc(-c3c(N[C@@H](C)c4ncccn4)c4nn(C)cc4[nH]c3=O)[nH]c2c1` [Compound 3, (S)-6-(6-methoxy-1H-imidazo[4,5-b]pyridin-2-yl)-2-methyl-7-((1-(pyrimidin-2-yl)ethyl)amino)-2H-pyrazolo[4,3-b]pyridin-5(4H)-one], for which the GI50 in assay [1] is 23.4 nM; in assay [2], 32.6 nM.

Turning to `CCn1cc2[nH]c(=O)c(-c3nc4ccc(OC)cc4[nH]3)c(N[C@@H](C)c3ncccn3)c2n1` [Compound 4, (S)-2-ethyl-6-(6-methoxy-1H-benzo[d]imidazol-2-yl)-7-((1-(pyrimidin-2-yl)ethyl)amino)-2H-pyrazolo[4,3-b]pyridin-5(4H)-one], the GI50 in assay [1] turned out to be 21.9 nM; in assay [2], 31.8 nM.

In the case of `CCOc1cc2[nH]c(-c3c(N[C@@H](C)c4ncccn4)c4nn(C)cc4[nH]c3=O)nc2cc1OC` [Compound 7, (S)-6-(6-ethoxy-5-methoxy-1H-benzo[d]imidazol-2-yl)-2-methyl-7-((1-(pyrimidin-2-yl)ethyl)amino)-2,4-dihydro-5H-pyrazolo[4,3-b]pyridin-5-one], the GI50 in assay [1] is 6.03 nM; in assay [2], 6.37 nM.

For `CCOc1cc2[nH]c(-c3c(N[C@@H](C)c4ncccn4)c4nn(CC)cc4[nH]c3=O)nc2cc1OC` [Compound 8, (S)-6-(6-ethoxy-5-methoxy-1H-benzo[d]imidazol-2-yl)-2-ethyl-7-((1-(pyrimidin-2-yl)ethyl)amino)-2H-pyrazolo[4,3-b]pyridin-5(4H)-one], the GI50 stood at 19.1 nM in assay [1] and 23 nM in assay [2].

In the case of `CC[C@H](Nc1c(-c2nc3cnc(N(C)C)cc3[nH]2)c(=O)[nH]c2cn(C)nc12)c1ncccn1` [Compound 22, (S)-6-(6-(dimethylamino)-1H-imidazo[4,5-c]pyridin-2-yl)-2-methyl-7-((1-(pyrimidin-2-yl)propyl)amino)-2H-pyrazolo[4,3-b]pyridin-5(4H)-one], the GI50 in assay [1] came out at 24.4 nM; in assay [2], 24.6 nM.

As for `COc1cc(OC)c2nc(-c3c(N[C@@H](C)c4ncccn4)c4nn(C)cc4[nH]c3=O)[nH]c2c1` [Compound 29, (S)-6-(4,6-Dimethoxy-1H-benzo[d]imidazol-2-yl)-2-methyl-7-((1-(pyrimidin-2-yl)ethyl)amino)-2H-pyrazolo[4,3-b]pyridin-5(4H)-one], the figures for the GI50 in assay [1] and in assay [2] were 16 nM and 20.8 nM, respectively.

Take `COc1cc2[nH]c(-c3c(N[C@@H](C)c4ncccn4)c4nn(C)cc4[nH]c3=O)nc2cn1` [Compound 30, (S)-6-(6-methoxy-1H-imidazo[4,5-c]pyridin-2-yl)-2-methyl-7-((1-(pyrimidin-2-yl)ethyl)amino)-2H-pyrazolo[4,3-b]pyridin-5(4H)-one]: the GI50 in assay [1] was determined as 11.1 nM; in assay [2], 7.88 nM.

For `CCn1cc2[nH]c(=O)c(-c3nc4c(OC)cc(OC)cc4[nH]3)c(N[C@@H](C)c3ncccn3)c2n1` [Compound 31, (S)-6-(4,6-dimethoxy-1H-benzo[d]imidazol-2-yl)-2-ethyl-7-((1-(pyrimidin-2-yl)ethyl)amino)-2H-pyrazolo[4,3-b]pyridin-5(4H)-one], the GI50 in assay [2] came to 64.5 nM.

As for `CCn1cc2[nH]c(=O)c(-c3nc4c(OC)cccc4[nH]3)c(N[C@@H](C)c3ncccn3)c2n1` [Compound 32, (S)-2-ethyl-6-(4-methoxy-1H-benzo[d]imidazol-2-yl)-7-((1-(pyrimidin-2-yl)ethyl)amino)-2H-pyrazolo[4,3-b]pyridin-5(4H)-one], the GI50 in assay [1] was determined as 43.2 nM; in assay [2], 69.6 nM.

For `CCn1cc2[nH]c(=O)c(-c3nc4cc(OC)c(OCCOC)cc4[nH]3)c(N[C@@H](C)c3ncccn3)c2n1` [Compound 38, (S)-2-ethyl-6-(5-methoxy-6-(2-methoxyethoxy)-1H-benzo[d]imidazol-2-yl)-7-((1-(pyrimidin-2-yl)ethyl)amino)-2H-pyrazolo[4,3-b]pyridin-5(4H)-one], the GI50 in assay [2] amounted to 37.3 nM.

For the compound `CCn1cc2[nH]c(=O)c(-c3nc4cc(OC)c(OC)cc4[nH]3)c(N[C@@H](C)c3ccccn3)c2n1` [Compound 51, (S)-6-(5,6-dimethoxy-1H-benzo[d]imidazol-2-yl)-2-ethyl-7-((1-(pyridin-2-yl)ethyl)amino)-2,4-dihydro-5H-pyrazolo[4,3-b]pyridin-5-one], the GI50 in assay [2] amounted to 31.1 nM.

“(S)-6-(5,6-Dimethoxy-1H-benzo[d]imidazol-2-yl)-2-ethyl-7-((1-(pyrimidin-2-yl)ethyl)-amino)-2H-pyrazolo[4,3-b]pyridin-5(4H)-one [Compound 6]”: the GI50 in assay [2] stood at 29.6 nM.
